Data published in EPA's ToxValDB 9.5 (doi:10.2903/j.efsa.2010.1786).
Converted amounts (≈) assume the structure as drawn.

What was measured:
[1] = test system: Coturnix japonica
[2] = test system: Rattus norvegicus
[3] = test system: Apis mellifera; settings: acute; duration: 48 hours; dermal; mortality
[4] = test system: Oncorhynchus mykiss; settings: acute; duration: 96 hours; mortality
[5] = test system: Colinus virginianus; settings: acute; oral; diet; mortality
[6] = test system: Encarsia formosa; settings: not reported; mortality
[7] = test system: Pimephales promelas; settings: chronic/long-term; duration: 31 days; growth
[8] = test system: Anas platyrhynchos; settings: for LC50: short-term, oral, feed, mortality
[9] = test system: Chalcophaps sp.; settings: acute; oral; unspecified; mortality
[10] = test system: Tagia sp.
[11] = test system: Canidae; settings: oral, Dog Other
[12] = test system: Daphnia magna; settings: chronic/long-term; duration: 21 days; reproduction
[13] = test system: Lepomis macrochirus; settings: acute; duration: 96 hours; mortality
[14] = test system: Perdix sp.; settings: acute; oral; unspecified; mortality
[15] = test system: Phasianus sp.; settings: acute; oral; unspecified; mortality

CCCCc1c(C)nc(NCC)nc1OS(=O)(=O)N(C)C [Bupirimate]
LD50 ([1]; acute, oral, mortality): > 5000 mg/kg-day | NOEC ([1]; reproduction developmental): ≥ 98 mg/kg-day | LD50 ([2]; acute, oral, mortality): 4000 mg/kg-day | LD50 [3]: > 50 µg/piece | LC50 [4]: 1 µg/mL (≈ 3.16 µM) | LC50 [5]: > 2580 mg/kg-day | LEL [6]: 750 g/ha | NOEC [7]: 0.1 mg/L | LC50 [8]: > 2090 mg/kg-day | LD50 [9]: > 2750 mg/kg-day | LC50 ([10]; acute, duration: 14 days, mortality): > 1000 mg/kg | NOEC ([10]; chronic/long-term): 7.3 mg/kg | NOAEL ([11]; chronic, duration: 2 years): 5 mg/kg-day | NOAEL ([11]; subchronic, duration: 90 days): 15 mg/kg-day | NOEC [12]: 0.56 mg/L | LC50 [13]: 1 µg/mL (≈ 3.16 µM)

CCCCc1c(C)nc(NCC)[nH]c1=O [Ethirimol]
NOAEL ([2]; acute, neurology): 4000 mg/kg-day | NOAEL ([2]; chronic, duration: 2 years, clinical signs): 3.5 mg/kg-day | NOEL ([2]; chronic, mortality): 500 mg/kg-day | NOAEL ([2]; reproduction developmental, body weight): 5 mg/kg-day | LD50 [14]: > 3000 mg/kg-day | LC50 [5]: > 3380 mg/kg-day | LD50 [15]: > 3000 mg/kg-day | NOEC ([8]; reproductive): 58 mg/kg-day | LC50 [8]: > 1960 mg/kg-day
